Measurements: US12240867B2, “Arginase inhibitors and methods of use” (Merck Sharp & Dohme LLC, priority 2018, dated 2025)
Like-named read-outs stand apart in the source and are kept apart here. Blank lines part the entries; values can stand above or below the compound they belong to.

How the values were obtained:
[1] = target: T1, Arginase (Homo sapiens, UniProt P05089); assay: Arginase Thioornithine Generating Assay (TOGA); format: biochemical
T1 sequence (P05089 1-322): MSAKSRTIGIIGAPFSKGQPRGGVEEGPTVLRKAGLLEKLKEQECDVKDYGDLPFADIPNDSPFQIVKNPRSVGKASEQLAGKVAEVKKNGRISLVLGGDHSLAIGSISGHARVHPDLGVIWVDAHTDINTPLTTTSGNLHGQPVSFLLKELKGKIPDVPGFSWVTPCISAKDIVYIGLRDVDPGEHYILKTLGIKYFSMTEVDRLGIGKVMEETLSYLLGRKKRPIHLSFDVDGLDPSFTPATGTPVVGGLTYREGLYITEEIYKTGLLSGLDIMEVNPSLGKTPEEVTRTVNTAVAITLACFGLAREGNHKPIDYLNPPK
Procedure: Arginase Thioornithine Generating Assay (TOGA)
Compounds were serially diluted in ten 3-fold steps in DMSO starting from 10 mM DMSO stocks. Compound dilutions or DMSO alone were then dispensed from the dilution plate into a Greiner black 384-well assay plate (catalog #781086) using an Echo 555 acoustic liquid handler (Labcyte).
Arginase protein was recombinantly expressed in Escherichia coli. Purified protein was then diluted in assay buffer (50 mM Tris pH 7.5, 50 mM NaCl, 1 mM manganese chloride, 0.0500 bovine serum albumin to obtain a final Arginase concentration of 1.88 nM. Arginase solution ([…])) or buffer alone (20 μL) were dispensed to wells of the assay plate using a BioRAPTR liquid dispenser (Beckman Coulter). Assay plates containing compound and arginase enzyme were incubated at room temperature for 30 minutes. Afterwards, 5 µL of 2.5 mM thioarginine (Cayman Chemicals) in assay buffer were added to each well of the assay plate using a BioRAPTR liquid dispenser. Plates were incubated at room temperature for 60 minutes and reactions were quenched by addition of 15 μL of 200 uM 7-Diethylamine-3-(4-maleimidophenyl)-4-methyl coumarin (Sigma Chemical) in 70% ethanol. Plates were briefly shaken to mix and the fluorescence was measured in an Spectramax plate reader (Molecular Devices) with a 410 nm excitation wavelength and an 490 nm emission wavelength.
Potencies were calculated by […] least squares fit to the four parameter logistic IC50 equation.

[2] = tested on: live female rabbits; settings: cited from earlier work
[3] = tested on: experimental autoimmune encephalomyelitis; settings: experimental autoimmune encephalomyelitis animal model; cited from earlier work
[4] = tested on: opossum internal anal sphincter muscle; settings: cited from earlier work
[5] = tested on: live male rabbits; settings: cited from earlier work
[6] = tested on: allergic asthma model; settings: nebulizer treatment of guinea pigs; cited from earlier work
[7] = tested on: penile corpus cavernosum; settings: rabbit and human penile corpus cavernosum; cited from earlier work
[8] = tested on: corpus cavernosum of the diabetic man; settings: ex vivo; cited from earlier work
[9] = Top Dose 10000 nM, read-out: Percent Inhibition at Top Dose
[10] = read-out: Percent Inhibition at Top Dose, Top Dose 10000 nM

SMILES: O=C(O)C12CNCC1(CCCB(O)O)CCN2 (racemic) [Example 6, racemic 3a-(3-boronopropyl)hexahydropyrrolo[3,4-b]pyrrole-6a(H)-carboxylic acid]
inhibition at 10 µM [1, 9]: 91.9%

SMILES: CN1CC2(CCCB(O)O)CCNC2(C(=O)O)C1 (racemic) [Example 7, Racemic 3a-(3-boronopropyl)-5-methylhexahydropyrrolo[3,4-b]pyrrole-6a(1H)-carboxylic acid]
inhibition at 10 µM [1, 9]: 85.1%

SMILES: N[C@@H](CCCCB(O)O)C(=O)O [ABH, (S)-2-amino-6-boronohexanoic acid]
engorgement response in the genitalia [2]: enhances the engorgement response
disease score [3]: improves the disease score
relaxation of internal anal sphincter muscle [4]: relax this muscle
erectile response [5]: enhances the erectile response
airway hyperresponsiveness [6]: prevents airway hyperresponsiveness
nitric oxide-dependent relaxation of corpus cavernosum tissue [7]: enhances the nitric oxide-dependent relaxation of this tissue
nitric oxide biosynthesis [8]: restores nitric oxide biosynthesis

SMILES: C[C@H](N)C(=O)N1C[C@@]2(CCCB(O)O)CCN[C@@]2(C(=O)O)C1 [Example 1, (3aR,6aR)-5-(L-alanyl)-3a-(3-boronopropyl)hexahydropyrrolo[3,4-b]pyrrole-6a(H)-carboxylic acid]
inhibition at 10 µM [1, 10]: 99.7%

SMILES: NCC(=O)N1C[C@@]2(CCCB(O)O)CCN[C@@]2(C(=O)O)C1 [Example 3, (3aR,6aR)-3a-(3-boronopropyl)-5-glycylhexahydropyrrolo[3,4-b]pyrrole-6a(H)-carboxylic acid]
inhibition at 10 µM [1, 10]: 89.5%

SMILES: O=C(O)[C@]12CNC[C@@]1(CCCB(O)O)CCN2 [Example 4, (3aR,6aR)-3a-(3-boronopropyl)hexahydropyrrolo[3,4-b]pyrrole-6a(1H)-carboxylic acid]
inhibition at 10 µM [1, 9]: 98.2%
IC50 ([1]; recombinant arginase 1.88 nM, thioarginine substrate, fluorescence readout): 46 nM

SMILES: O=C(O)[C@@]12CNC[C@]1(CCCB(O)O)CCN2 [Example 5, (3aS,6aS)-3a-(3-boronopropyl)hexahydropyrrolo[3,4-b]pyrrole-6a(H)-carboxylic acid]
inhibition at 10 µM [1, 9]: 93%

inhibition at 10 µM [1, 9]: 99%
SMILES: CC(C)[C@H](N)C(=O)N1C[C@@]2(CCCB(O)O)CCN[C@@]2(C(=O)O)C1 [Example 8, (3aR,6aR)-5-(L-valyl)-3a-(3-boronopropyl)hexahydropyrrolo[3,4-b]pyrrole-6a(H)-carboxylic acid]

SMILES: N[C@@H](CO)C(=O)N1C[C@@]2(CCCB(O)O)CCN[C@@]2(C(=O)O)C1 [Example 9, (3aR,6aR)-5-(L-seryl)-3a-(3-boronopropyl)hexahydropyrrolo[3,4-b]pyrrole-6a(1H)-carboxylic acid]
inhibition at 10 µM [1, 10]: 97.3%

SMILES: O=C([C@@H]1CCCN1)N1C[C@@]2(CCCB(O)O)CCN[C@@]2(C(=O)O)C1 [Example 10, (3aR,6aR)-5-(L-prolyl)-3a-(3-boronopropyl)hexahydropyrrolo[3,4-b]pyrrole-6a(1H)-carboxylic acid]
inhibition at 10 µM [1, 10]: 96.6%

SMILES: O=C(O)[C@]12CNC[C@@]1(CCCB(O)O)CN2 [Example 11, (1S,5R)-1-(3-boronopropyl)-3,6-diazabicyclo[3.2.0]heptane-5-carboxylic acid]
inhibition at 10 µM [1, 9]: 99.5%

SMILES: NC[C@@H]1NC[C@]2(C(=O)O)NCC[C@]12CCCB(O)O [Example 12, (3aR,4R,6aR)-4-(aminomethyl)-3a-(3-boronopropyl)hexahydropyrrolo[3,4-b]pyrrole-6a(1H)-carboxylic acid]
inhibition at 10 µM [1, 10]: 100%

inhibition at 10 µM [1, 9]: 102%
SMILES: CSCC[C@H](N)C(=O)N1C[C@@]2(CCCB(O)O)CCN[C@@]2(C(=O)O)C1 [Example 13]

inhibition at 10 µM [1, 9]: 102%
SMILES: CC(C)(C)[C@H](N)C(=O)N1C[C@@]2(CCCB(O)O)CCN[C@@]2(C(=O)O)C1 [Example 14]

inhibition at 10 µM [1, 9]: 96.7%
SMILES: CC(C)C[C@H](N)C(=O)N1C[C@@]2(CCCB(O)O)CCN[C@@]2(C(=O)O)C1 [Example 15]

inhibition at 10 µM [1, 9]: 97.3%
SMILES: CC(C)(N)C(=O)N1C[C@@]2(CCCB(O)O)CCN[C@@]2(C(=O)O)C1 [Example 16]

inhibition at 10 µM [1, 9]: 97.8%
SMILES: COC[C@H](N)C(=O)N1C[C@@]2(CCCB(O)O)CCN[C@@]2(C(=O)O)C1 [Example 17]

inhibition at 10 µM [1, 9]: 97.9%
SMILES: C[C@H](N)C(=O)N1C[C@@]2(CCCB3O[C@@H]4C[C@@H]5C[C@@H](C5(C)C)[C@]4(C)O3)CCN[C@@]2(C(=O)O)C1 [Example 18, (3aR,6aR)-5-(L-alanyl)-3a-(3-((3aS,4S,6S,7aR)-3a,5,5-trimethylhexahydro-4,6-methanobenzo[d][1,3,2]dioxaborol-2-yl)propyl)hexahydropyrrolo[3,4-b]pyrrole-6a(1H)-carboxylic acid]
